Data set [1] deals with human xenograft models. As to conditions: dosed orally; cited from earlier work.
Data set [2] has as its target T1, c-Met (Homo sapiens, UniProt P08581). As to conditions: cited from earlier work.
Data set [3] relates to CYP450. The following applies: cited from earlier work.
For data set [4] the following is noted: in vivo; cited from earlier work.
The conditions of data set [5]: early Phase I; cited from earlier work.
For data set [6], the target named is T1, c-Met. The data set is described as follows: c-Met activation in HGF-treated A431 cells (proximity assay). It counts as cell-based. The following applies: A431 epidermoid carcinoma cells, FIG. 3. The protocol:
(§1) The slide was incubated for two hours at room temperature. • 4) After six washes with TBS-Tween, 80 μl of detection antibodies for the proximity assay diluted in TBS-Tween/2% BSA/1% FBS was added to the slides. The incubation was for 2 hours at room temperature. • a) As a non-limiting example, the detection antibodies can comprise the following: (i) an anti-c-Met monoclonal antibody that is directly conjugated to glucose oxidase (GO); and (ii) a monoclonal antibody recognizing phosphorylated c-Met that is directly conjugated to horseradish peroxidase (HRP). • b) Alternatively, the detection step can utilize a biotin-conjugate of the monoclonal antibody recognizing phosphorylated c-Met. In these instances, after six washes, an additional sequential step of incubation with streptavidin-HRP for 1 hour is included. • c) Alternatively, the detection step can utilize an oligonucleotide-mediated glucose oxidase (GO) conjugate of the anti-c-Met antibody. […]
(§2) The multiplexed protein microarray platform described herein utilizes the formation of a unique immuno-complex requiring the co-localization of two detector enzyme-conjugated-antibodies once target proteins are captured on the microarray surface. […] The detection and quantification of as few as ˜2-3×10^4 phosphorylation events is routinely achieved by this method, bringing its detection to a “single” cell level. […]

The target in data set [7] is T1, c-Met. Briefly: c-Met activation in HGF-treated HCC827 cells (proximity assay). It counts as cell-based. The following applies: HCC827 lung cancer cells, FIG. 4. The text has this:
(§3) The multiplexed protein microarray platform described herein utilizes the formation of a unique immuno-complex requiring the co-localization of two detector enzyme-conjugated-antibodies once target proteins are captured on the microarray surface. The channeling events between two detector enzymes (glucose oxidase (GO) and horseradish peroxidase (HRP)) in proximity enables the profiling of a receptor tyrosine kinase (RTK) such as c-Met with extreme sensitivity. […] In particular, the multiplexed proximity assay is based on (1) a multiplexed protein microarray platform combined with (2) a triple-antibody-enzyme channeling signal amplification process. The unique and novel design is provided by the triple-antibody enzyme approach that confers ultra-high sensitivity while preserving specificity: • (1) The selected target is captured by target-specific antibodies printed in serial dilutions on a microarray surface. […] The detection and quantification of as few as ˜2-3×10^4 phosphorylation events is routinely achieved by this method, bringing its detection to a “single” cell level. In certain instances, this collaborative immunoassay configuration can be further applied to investigate protein interactions and activations.

Data set [8] concerns HER2. The data set is described as follows: HER2 activation in HGF-treated HCC827 cells (proximity assay). The format is cell-based. As to conditions: HCC827 lung cancer cells, FIG. 4.
From the text: as §3

Data set [9] deals with HER2. The data set is described as follows: HER2 activation in HGF-treated A431 cells (proximity assay). The following applies: A431 epidermoid carcinoma cells, FIG. 3. The format is cell-based. Here is the method: as §1, §2

T1 sequence (P08581 25-1390): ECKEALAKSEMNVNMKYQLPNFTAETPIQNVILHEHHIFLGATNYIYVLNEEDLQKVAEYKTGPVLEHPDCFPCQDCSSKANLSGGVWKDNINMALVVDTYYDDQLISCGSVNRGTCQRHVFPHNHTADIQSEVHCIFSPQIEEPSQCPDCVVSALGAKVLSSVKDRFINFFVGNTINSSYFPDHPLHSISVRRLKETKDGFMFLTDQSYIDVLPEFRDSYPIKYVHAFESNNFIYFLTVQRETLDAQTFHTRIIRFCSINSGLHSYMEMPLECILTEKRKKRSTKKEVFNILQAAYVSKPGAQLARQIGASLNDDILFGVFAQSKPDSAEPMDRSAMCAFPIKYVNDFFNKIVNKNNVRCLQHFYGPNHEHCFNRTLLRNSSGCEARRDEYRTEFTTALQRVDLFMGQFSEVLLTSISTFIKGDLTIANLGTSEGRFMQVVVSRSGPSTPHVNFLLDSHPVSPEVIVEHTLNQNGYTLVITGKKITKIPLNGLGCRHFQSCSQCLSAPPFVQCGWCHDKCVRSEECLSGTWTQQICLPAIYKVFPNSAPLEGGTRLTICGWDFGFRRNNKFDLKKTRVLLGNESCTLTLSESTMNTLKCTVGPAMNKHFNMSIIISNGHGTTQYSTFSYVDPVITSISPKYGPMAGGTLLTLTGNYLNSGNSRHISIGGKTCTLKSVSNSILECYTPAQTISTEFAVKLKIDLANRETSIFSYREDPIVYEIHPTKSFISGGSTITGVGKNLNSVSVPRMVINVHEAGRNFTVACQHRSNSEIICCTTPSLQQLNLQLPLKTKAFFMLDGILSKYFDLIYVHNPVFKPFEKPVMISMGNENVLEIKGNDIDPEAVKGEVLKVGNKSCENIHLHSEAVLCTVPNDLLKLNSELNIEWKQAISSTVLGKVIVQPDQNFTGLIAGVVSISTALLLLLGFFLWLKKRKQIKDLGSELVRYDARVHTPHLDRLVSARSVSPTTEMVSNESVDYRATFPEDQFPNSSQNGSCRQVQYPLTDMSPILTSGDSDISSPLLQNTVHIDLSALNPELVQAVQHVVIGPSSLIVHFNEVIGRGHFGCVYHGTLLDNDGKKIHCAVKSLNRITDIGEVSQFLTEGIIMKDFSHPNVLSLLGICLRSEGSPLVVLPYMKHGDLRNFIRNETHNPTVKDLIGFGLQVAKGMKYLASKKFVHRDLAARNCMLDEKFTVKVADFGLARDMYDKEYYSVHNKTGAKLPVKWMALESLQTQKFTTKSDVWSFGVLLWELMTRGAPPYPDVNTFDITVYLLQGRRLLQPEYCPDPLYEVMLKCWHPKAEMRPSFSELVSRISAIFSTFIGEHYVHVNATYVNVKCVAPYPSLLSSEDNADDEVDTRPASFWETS

`Cn1cc(-c2ccc3nnc(Sc4ccc5ncccc5c4)n3n2)cn1` [SGX523]: in [1], the antitumor activity result is reported as “potent antitumor activity” and the toxicity entry is recorded as “no overt toxicity”.
Regarding “MetMAb: humanized, monovalent, antagonistic anti-c-Met antibody derived from the agonistic monoclonal antibody 5D5”, the “binding to c-Met” value in [2] is reported as “high affinity”.
For `COc1cc2c(Oc3ccc(NC(=O)C4(C(=O)Nc5ccc(F)cc5)CC4)cc3F)ccnc2cc1OCCCN1CCOCC1` [XL880], in data set [3], the “CYP450 substrate / inhibitor / inducer” value was “substrate, but not an inhibitor or inducer”. Moreover, in data set [4], the oral bioavailability entry was “good”.
Take `CN(C[C@@H]1COCCO1)S(=O)(=O)Nc1ccc2ccc3ncc(-c4cnn(C)c4)cc3c(=O)c2c1` [MK-2461]: in data set [5], the tolerability entry was “well tolerated”.
In the case of “HGF: c-Met ligand, hepatocyte growth factor, a multidomain glycoprotein”, in [6], the c-Met phosphorylation entry is “stimulated”. In addition, in data set [7], the “increase of c-Met phosphorylation” value is reported as “about 4 fold”. Besides, the values for the HER2 phosphorylation result in [8] and in data set [9] were “not affected” and “slightly decreased”, respectively.

The record behind these values is patent US10473640B2, “Drug selection for gastric cancer therapy using antibody-based arrays” (Société des Produits Nestlé S.A., priority 2006, dated 2019).
